Experimental findings from patent US20060166995A1, “Piperidine-n-oxide-derivatives” (ALTANA PHARMA AG, priority 2002, published 2006) are described below.

One series relates to PDE4. As to the kind of experiment: Inhibition of PDE4 activity (cytosol from human neutrophils, [3H]cAMP hydrolysis). To be noted: 0.5 μM cAMP, Motapizone (1 μM) included to suppress PDE3 activity. The series is classed as biochemical. On the procedure:
Method for Measuring Inhibition of PDE4 Activity
PDE4 activity was determined as described by Thompson et al. (Adv Cycl Nucl Res 10: 69-92, 1979) with some modifications (Bauer and Schwabe, Naunyn-Schmiedeberg's Arch Pharmacol 311: 193-198, 1980). At a final assay volume of 200 μl (96 well microtiter plates) the assay mixture contained 20 mM Tris (pH 7.4), 5 mM MgCl2, 0.5 μM cAMP, [^3H]cAMP (about 30,000 cpm/assay), the test compound and an aliquot of cytosol from human neutrophils which mainly contains PDE4 activity as described by Schudt et al. (Naunyn-Schmiedeberg's Arch Pharmacol 344: 682-690, 1991); the PDE3-specific inhibitor Motapizone (1 μM) was included to suppress PDE3 activity originating from contaminating platelets. Serial dilutions of the compounds were prepared in DMSO and further diluted 1:100 (v/v) in the assays to obtain the desired final concentrations of the inhibitors at a DMSO concentration of 1 % (v/v) which by itself only slightly affected PDE4 activity.
After preincubation for 5 min at 37° C., the reaction was started by the addition of substrate (cAMP) and the assays were incubated for further 15 min at 37° C. 50 μl of 0.2 N HCl was added to stop the reaction and the assays were left on ice for about 10 min. Following incubation with 25 μg 5′-nucleotidase (Crotalus atrox snake venom) for 10 min at 37° C., the assays were loaded on QAE Sephadex A-25 (1 ml bed volume). The columns were eluted with 2 ml of 30 mM ammonium formiate (pH 6.0) and the eluate was counted for radioactivity. Results were corrected for blank values (measured in the presence of denatured protein) which were below 5% of total radioactivity. […] The IC50-values for the compounds according to the invention for the inhibition of the PDE4 activity were determined from the concentration-inhibition curves by nonlinear-regression.
The inhibitory values determined for the compounds according to the invention follow from the following table A, which the numbers of the compounds correspond to the numbers of the examples.

In general, melting point refers to the temperature of the solid-liquid transition. In turn, `COc1ccc(C2=NN(C3CC[N+]([O-])(CC(N)=O)CC3)C(=O)C3CC=CCC23)cc1OC` [compound 1, 2-{4-[(4aS,8aR)-4-(3,4-Dimethoxy-phenyl)-1-oxo-4a,5,8,8a-tetrahydro-1H-phthalazin-2-yl]-1-oxy-piperidin-1-yl}-acetamide] had a melting point of 159 to 161 °C. For the same compound, the “Inhibition of PDE4 acitivity [measured as −logIC50 (mol/l)]” value in the series with PDE4 is 8.31.

For `COc1ccc(C2=NN(C3CC[N+]([O-])(CC(=O)NC(C)C)CC3)C(=O)C3CC=CCC23)cc1OC` [compound 2, 2-{4-[(4aS,8aR)-4-(3,4-Dimethoxy-phenyl)-1-oxo-4a,5,8,8a-tetrahydro-1H-phthalazin-2yl]-1-oxy-piperidin-1-yl}-N-isopropyl-acetamide], the melting point fell in the range of 130 to 132 °C. In addition, the “Inhibition of PDE4 acitivity [measured as −logIC50 (mol/l)]” value in the series on PDE4 was found to be 9.3.

Consider `COc1ccc(C2=NN(C3CC[N+]([O-])(CC(N)=O)CC3)C(=O)C3CCCCC23)cc1OC` (stereo not drawn) [compound 3], for which the melting point is 176 to 177 °C. For the same compound, the “Inhibition of PDE4 acitivity [measured as −logIC50 (mol/l)]” value in the series on PDE4 stood at 7.5.
